Measured values from publication PMC8589421, “Impact of Type II LRRK2 inhibitors on signaling and mitophagy” (Biochemical Journal, 2021).
Where two headings read alike, the source gives them in different places.

Columns and labels:
[1] = system: Rab10 pThr73, LRRK2 [G2019S]; assay: Rab10 Thr73 phospho-immunoblot in LRRK2[G2019S] knock-in MEFs; type: cell-based, mouse; conditions: LRRK2[G2019S] knock-in MEFs, 2 h, read-out: LRRK2 [G2019S] Rab10 pThr73 IC50
Procedure: Wild-type and homozygous LRRK2 [R1441C] (Jax, stock number: 009346), LRRK2[G2019S] Taconic, (model 13940) and LRRK2 [A2016T] (Jax, stock number: 021828)[7] knock-in MEF cells were isolated from littermate-matched mouse embryos on a C57BL/6J background at day E12.5 as described previously. MEFs were grown in Dulbecco's modified Eagle medium (DMEM GIBCO, #11960-085) containing 10% (by vol) fetal bovine serum (FBS), 2 mM L-glutamine, 100 U/ml penicillin, and […] streptomycin supplemented with non-essential amino acids and 1 mM sodium pyruvate. Human embryonic kidney 293 (HEK293) (#ATCC CRL-1573) and HeLa (#ATCC CCL-2) cells were purchased from American Tissue Culture Collection (ATCC) and cultured in DMEM containing 10% (by vol) FBS, 2 mM L-glutamine, 100 U/ml penicillin, and […] streptomycin. All cells were grown at 37°C, 5% (by vol) CO2 in a humidified atmosphere and regularly tested for mycoplasma contamination.
(§1) Inhibitors were dissolved in dimethyl sulfoxide (DMSO) (Sigma, #D2650). The inhibitors were diluted 1000× into cell medium. The equivalent volume of DMSO was added to the minus inhibitor controls. Experiments were performed in six-well plates, 10 cm dishes or 15 cm dishes depending on the amount of cell extract required.
Cells were lysed in an ice-cold lysis buffer containing 50 mM Tris–HCl, pH 7.4, 1% (by vol) Triton X-100, 10% (by vol) glycerol, 150 mM NaCl, 1 mM sodium orthovanadate, 50 mM NaF, 10 mM 2-glycerophosphate, 5 mM sodium pyrophosphate, 1 µg/ml microcystin-LR, and cOmplete EDTA-free protease inhibitor cocktail (Roche, #11836170001). Lysates were incubated on ice for 30 min and clarified by centrifugation at 20 800×g at 4°C for 20 min. Supernatants were quantified by Bradford assay (Bio-Rad Protein Assay Dye Reagent Concentrate #5000006) and samples prepared in 1× lithium dodecyl sulfate sample buffer final concentration (NuPage LDS Sample buffer 4× Invitrogen, #NP0008). When not deployed immediately, lysates were snap-frozen in liquid nitrogen and stored at −80°C until use. […]

LRRK2 at Ser935 = assay: LRRK2 Ser935 phospho-immunoblot in wild-type MEFs; type: cell-based, mouse
Procedure: Wild-type and homozygous LRRK2 [R1441C] […] All cells were grown at 37°C, 5% (by vol) CO2 in a humidified atmosphere and regularly tested for mycoplasma contamination.
as §1
Lysates were incubated on ice for 30 min and clarified by centrifugation at 20 800×g at 4°C for 20 min. Supernatants were quantified by Bradford assay (Bio-Rad Protein Assay Dye Reagent Concentrate #5000006) and samples prepared in 1× lithium dodecyl sulfate sample buffer final concentration (NuPage LDS Sample buffer 4× Invitrogen, #NP0008). When not deployed immediately, lysates were snap-frozen in liquid nitrogen and stored at −80°C until use.
Cell extracts were mixed with a quarter of a volume of NuPage LDS Sample buffer 4× Invitrogen and heated at 95°C for 5 min. […] At the end of electrophoresis, proteins were electrophoretically transferred onto the nitrocellulose membrane (GE Healthcare, Amersham Protran Supported 0.45 µm NC) at 100 V for 90 min on ice in the transfer buffer (48 mM Tris–HCl and 39 mM glycine supplemented with 20% methanol). Transferred membrane was blocked with 5% (w/v) skim milk powder dissolved in TBS-T [20 mM Tris–HCl, pH 7.5, 150 mM NaCl and 0.1% (v/v) Tween 20] at room temperature for 1 h. The membrane was typically cropped into three pieces, namely the ‘top piece’ (from the top of the membrane to 75 kDa), the ‘middle piece’ (between 75 and 30 kDa) and the ‘bottom piece’ (from 30 kDa to the bottom of the membrane). All primary antibodies were used at 1 μg/ml final concentration and incubated in TBS-T containing 5% (by mass) bovine serum albumin with exception of α-tubulin and GAPDH antibodies that were diluted 1 : 5000 and 1 : 2000, respectively. The top piece was incubated with the indicated rabbit anti-LRRK2 phosphorylation site antibody multiplexed with mouse anti-LRRK2 C-terminus total antibody. The middle piece was incubated with mouse anti-GAPDH or anti-α-tubulin antibody. The bottom pieces were incubated with indicated total and phospho-Rab antibodies. Membranes were incubated in primary antibody overnight at 4°C. Prior to secondary antibody incubation, membranes were washed three times with TBS-T for 10 min each. […] Membranes were washed with TBS-T for three times with a 10 min incubation for each wash. Protein bands were acquired via near infrared fluorescent detection using the Odyssey CLx imaging system and quantified using the Image Studio software.

## Cc1ccc(C(=O)Nc2ccc(CN3CCN(C)CC3)c(C(F)(F)F)c2)cc1C#Cc1cnc2[nH]ncc2c1 [GZD-824]
[1]
  IC50: 233 nM
[1]; Mus musculus
  IC50: 233 nM
LRRK2 at Ser935; MEFs, 2 h dose response
  effect on LRRK2 Ser935 phosphorylation: did not induce dephosphorylation
LRRK2 at Ser935; wild-type MEFs, 1 μM, 24 h
  Ser935 phosphorylation over 24 h time course: unaffected
LRRK2 at Ser935; wild-type MEFs, 10 μM, 2 h, Supplemental Figure S2A
  effect on LRRK2 Ser935 phosphorylation: did not reduce LRRK2 phosphorylation at Ser935 significantly
